In the supplement of paper PMC11061612:

Experiments:
[1] = test system: VMRC-LCD (Lung Adenocarcinoma); assay: Bliss excess, mean over the matrix (fraction); higher = more synergy
In short: (§1)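 Cell lines in DMEM/F12 or RPMI with 10% FBS were plated in 1536-well plates, held 24 hours at 37°C, 5% CO2, then given two-drug dose matrices for 72 hours (DMSO typically 0.2%). Viability was read by CellTiter-Glo 2.0 luminescence and scaled as inhibition from 0 (vehicle wells) to 1 (blank wells). Combination Emax is the second-highest inhibition in the matrix; Bliss excess is observed combination effect minus expected EA + EB − EA·EB, EA and EB being single-agent effects.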

[2] = test system: SCC-9 (Oral Cavity Carcinoma); assay: as above
In short: as §1

[3] = test system: TGBC11TKB (Gastric Carcinoma); assay: as above
In short: as §1

[4] = test system: MFE-319 (Endometrial Carcinoma); assay: as above
In short: as §1

[5] = test system: OCUB-M (Breast Carcinoma); assay: as above
In short: as §1

NB7 (Neuroblastoma) = assay: as above
In short: as §1

[6] = test system: BV-173 (Chronic Myelogenous Leukemia); assay: as above
In short: as §1

[7] = test system: JHH-7 (Hepatocellular Carcinoma); assay: as above
In short: as §1

[8] = test system: PFSK-1 (Other Solid Carcinomas); assay: as above
In short: as §1

[9] = test system: NCI-H322M (Lung Adenocarcinoma); assay: as above
In short: as §1

EW-18 (Ewing's Sarcoma) = assay: as above
In short: as §1

[10] = test system: ASH-3 (Thyroid Gland Carcinoma); assay: as above
In short: as §1

[11] = test system: H-EMC-SS (Chondrosarcoma); assay: as above
In short: as §1

[12] = test system: NCI-H513 (Other Solid Carcinomas); assay: combination Emax (second highest fraction inhibited in the dose matrix, 72 h); higher = more inhibition; extreme values may be limits of the assay
In short: as §1

[13] = test system: OCUM-1 (Gastric Carcinoma); assay: as above
In short: as §1

[14] = test system: KYSE-150 (Esophageal Squamous Cell Carcinoma); assay: as above
In short: as §1

[15] = test system: PFSK-1 (Other Solid Carcinomas); assay: as above
In short: as §1

[16] = test system: LC4-1 (B-Lymphoblastic Leukemia); assay: as above
In short: as §1

[17] = test system: NCI-N87 (Gastric Carcinoma); assay: as above
In short: as §1

[18] = test system: ASH-3 (Thyroid Gland Carcinoma); assay: as above
In short: as §1
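Throughout, for Bliss excess, mean over the matrix: after 72 h of two-drug dosing.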

| SMILES | Bliss excess [1] | Bliss excess [2] | Bliss excess [3] | Bliss excess [4] | Bliss excess [5] | Bliss excess (NB7 (Neuroblastoma)) | Bliss excess [6] | Bliss excess [7] | Bliss excess [8] | Bliss excess [9] | Bliss excess (EW-18 (Ewing's Sarcoma)) | Bliss excess [10] | Bliss excess [11] | combination Emax [12] | combination Emax [13] | combination Emax [14] | combination Emax [15] | combination Emax [16] | combination Emax [17] | combination Emax [18] |
| --- | --- | --- | --- | --- | --- | --- | --- | --- | --- | --- | --- | --- | --- | --- | --- | --- | --- | --- | --- | --- |
| COc1cccc(OCCCN)c1-c1cc(Nc2cnc(C#N)cn2)n[nH]1 [Prexasertib] + CCc1c2c(nc3ccc(O)cc13)-c1cc3c(c(=O)n1C2)COC(=O)[C@]3(O)CC [SN-38] (first compound max 1 µM, 7x7, partner max 0.3 µM) | 0.023 | 0.0405 | 0.0252 | 0.0161 | 0.258 | 0.0222 | -0.0594 | 0.116 | -0.0513 | -0.0161 | -0.0728 | 0.0624 | -0.0116 | 0.695 | 0.787 | 0.966 | 0.815 | 0.966 | 0.816 | 0.989 |
| CN(CCO)CC[C@H](CSc1ccccc1)Nc1ccc(S(=O)(=O)NC(=O)c2ccc(N3CCC([C@@H](O)c4ccccc4-c4ccc(Cl)cc4)CC3)cc2)cc1S(=O)(=O)C(F)(F)F [AZD4320] + C[C@@H]1COCCN1C2=NC(=NC(=C2)C3(CC3)[S@](=N)(=O)C)C4=C5C=CNC5=NC=C4 [AZD6738] (first compound max 1 µM, 7x7, partner max 10 µM) | -0.0764 | -0.0587 | 0.0135 | -0.0119 | 0.0055 | -0.0181 | -0.0453 | 0.0174 | 0.0409 | -0.0335 | -0.0539 | -0.0011 | -0.0351 | 0.452 | 0.914 | 0.614 | 0.781 | 1 | 0.845 | 0.662 |
| NC1(C(=O)N[C@@H](CCO)c2ccc(Cl)cc2)CCN(c2ncnc3[nH]ccc23)CC1 [Capivasertib] + CCN(CCO)CCCOc1ccc2c(Nc3cc(CC(=O)Nc4cccc(F)c4)[nH]n3)ncnc2c1 [AZD2811] (first compound max 10 µM, 7x7, partner max 1 µM) | 0.0111 | -0.0281 | -0.0987 | -0.107 | -0.0217 | 0.0377 | -0.031 | -0.0692 | -0.027 | 0.0203 | -0.0358 | -0.0147 | -0.0105 | 0.19 | 0.683 | 0.536 | 0.532 | 0.905 | 0.73 | 0.451 |
| Cc1nc(Nc2ncc(C(=O)Nc3c(C)cccc3Cl)s2)cc(N2CCN(CCO)CC2)n1 [Dasatinib] + CC(=O)Nc1cccc(-n2c(=O)n(C3CC3)c(=O)c3c(Nc4ccc(I)cc4F)n(C)c(=O)c(C)c32)c1 [Trametinib] (first compound max 2 µM, 7x7, partner max 1 µM) | -0.0596 | 0.0784 | -0.103 | -0.108 | -0.0384 | 0.0262 | -0.179 | -0.0394 | -0.095 | 0.0004 | -0.086 | 0.0994 | 0.0331 | 0.531 | 0.988 | 0.743 | 0.338 | 0.244 | 0.764 | 0.855 |
| NC1(C(=O)N[C@@H](CCO)c2ccc(Cl)cc2)CCN(c2ncnc3[nH]ccc23)CC1 [Capivasertib] + C[C@@H]1COCCN1C2=NC(=NC(=C2)C3(CC3)[S@](=N)(=O)C)C4=C5C=CNC5=NC=C4 [AZD6738] (first compound max 10 µM, 7x7, partner max 10 µM) | -0.0185 | -0.0111 | -0.09 | -0.122 | -0.0241 | -0.0518 | -0.0271 | -0.0404 | -0.0956 | -0.0797 | -0.0504 | -0.0468 | -0.0022 | 0.386 | 0.774 | 0.681 | 0.699 | 0.949 | 0.781 | 0.697 |
| CC1(C)CCC(CN2CCN(c3ccc(C(=O)NS(=O)(=O)c4ccc(NCC5CCOCC5)c([N+](=O)[O-])c4)c(Oc4cnc5[nH]ccc5c4)c3)CC2)=C(c2ccc(Cl)cc2)C1 [Venetoclax] + CCN(CCO)CCCOc1ccc2c(Nc3cc(CC(=O)Nc4cccc(F)c4)[nH]n3)ncnc2c1 [AZD2811] (first compound max 1 µM, 7x7, partner max 1 µM) | -0.0227 | -0.0214 | 0.0287 | 0.0015 | -0.049 | 0.0098 | -0.0739 | 0.0033 | 0.0663 | -0.0153 | -0.0131 | -0.0166 | -0.0468 | 0.183 | 0.53 | 0.308 | 0.304 | 1 | 0.242 | 0.318 |
| CN(CCO)CC[C@H](CSc1ccccc1)Nc1ccc(S(=O)(=O)NC(=O)c2ccc(N3CCC([C@@H](O)c4ccccc4-c4ccc(Cl)cc4)CC3)cc2)cc1S(=O)(=O)C(F)(F)F [AZD4320] + CN(C)CCCOc1ccc(-c2ccc3ncc4c(c3c2)n(C2CCOCC2)c(=O)n4C)cn1 [AZD0156] (first compound max 1 µM, 7x7, partner max 1 µM) | -0.0542 | -0.0423 | -0.0242 | -0.0009 | 0.0044 | -0.0333 | -0.0681 | -0.0408 | 0.0427 | -0.0432 | 0.0042 | 0.0341 | -0.0374 | 0.143 | 0.734 | 0.206 | 0.375 | 1 | 0.477 | 0.498 |
| Cc1c2c(nn1C)CSCc1cc(n(C)n1)CSc1cc(c3ccccc3c1)OCCCc1c(C(=O)O)n(C)c3c-2c(Cl)ccc13 [AZD5991] + Cc1cc2ncnn2cc1Nc1ncc2c(n1)n(C1CCOCC1)c(=O)n2C [AZD7648] (first compound max 1 µM, 7x7, partner max 10 µM) | -0.0302 | -0.0716 | -0.0954 | -0.0534 | -0.0448 | -0.0079 | -0.0512 | -0.0598 | -0.0199 | -0.05 | -0.0254 | -0.0739 | 0.0025 | 0.324 | 0.215 | 0.57 | 1 | 0.968 | 0.492 | 0.358 |
| CC1(C)CCC(CN2CCN(c3ccc(C(=O)NS(=O)(=O)c4ccc(NCC5CCOCC5)c([N+](=O)[O-])c4)c(Oc4cnc5[nH]ccc5c4)c3)CC2)=C(c2ccc(Cl)cc2)C1 [Venetoclax] + C[C@@H](Nc1cc(F)cc(F)c1)c1cc(C(=O)N(C)C)cc2c(=O)cc(N3CCOCC3)oc12 [AZD8186] (first compound max 1 µM, 7x7, partner max 3 µM) | -0.0457 | -0.0222 | -0.0067 | -0.0419 | -0.0082 | -0.0235 | -0.0477 | -0.0516 | 0.0015 | -0.0526 | 0.0781 | -0.0223 | -0.0159 | 0.17 | 0.137 | 0.161 | 0.194 | 1 | 0.578 | 0.332 |
| NC1(C(=O)N[C@@H](CCO)c2ccc(Cl)cc2)CCN(c2ncnc3[nH]ccc23)CC1 [Capivasertib] + COc1nnc2ccc(N3CCC(c4ccc(OCCN5CCN(C)C(=O)[C@H]5C)cc4)CC3)nn12 [AZD5153] (first compound max 10 µM, 7x7, partner max 1 µM) | 0.0154 | 0.0627 | -0.0144 | 0.0499 | 0.0223 | -0.0483 | -0.0607 | 0.0156 | -0.0158 | -0.0144 | 0.0119 | 0.0231 | 0.0011 | 0.416 | 0.596 | 0.796 | 0.581 | 0.99 | 0.772 | 0.831 |
| COc1nnc2ccc(N3CCC(c4ccc(OCCN5CCN(C)C(=O)[C@H]5C)cc4)CC3)nn12 [AZD5153] + CC1(C)CCC(CN2CCN(c3ccc(C(=O)NS(=O)(=O)c4ccc(NCC5CCOCC5)c([N+](=O)[O-])c4)c(Oc4cnc5[nH]ccc5c4)c3)CC2)=C(c2ccc(Cl)cc2)C1 [Venetoclax] (first compound max 1 µM, 7x7, partner max 1 µM) | -0.063 | -0.0478 | -0.0783 | -0.124 | -0.0299 | -0.0287 | -0.0706 | -0.0676 | -0.0853 | -0.076 | -0.0371 | 0.0122 | -0.0508 | 0.358 | 0.567 | 0.627 | 0.595 | 1 | 0.592 | 0.718 |
| Cn1cnc2c(F)c(Nc3ccc(Br)cc3Cl)c(C(=O)NOCCO)cc21 [Selumetinib] + C[C@@H]1COCCN1C2=NC(=NC(=C2)C3(CC3)[S@](=N)(=O)C)C4=C5C=CNC5=NC=C4 [AZD6738] (first compound max 10 µM, 7x7, partner max 10 µM) | -0.0546 | -0.0302 | 0.0232 | 0.0065 | -0.0604 | -0.0257 | -0.0149 | -0.0073 | -0.0535 | -0.0415 | -0.0471 | 0.0892 | -0.0405 | 0.416 | 0.951 | 0.622 | 0.595 | 0.91 | 0.632 | 0.607 |
| Cc1c2c(nn1C)CSCc1cc(n(C)n1)CSc1cc(c3ccccc3c1)OCCCc1c(C(=O)O)n(C)c3c-2c(Cl)ccc13 [AZD5991] + Cn1cnc2c(F)c(Nc3ccc(Br)cc3Cl)c(C(=O)NOCCO)cc21 [Selumetinib] (first compound max 1 µM, 7x7, partner max 3 µM) | -0.0229 | 0.0245 | 0.0592 | -0.0233 | 0.0322 | -0.0259 | 0.0265 | -0.0649 | 0.0395 | 0.0308 | 0.002 | 0.0175 | -0.017 | 0.473 | 0.895 | 0.488 | 1 | 1 | 0.426 | 0.368 |
